Test results published in patent US11000033B2, “Ketone or oxime compound, and herbicide” (NISSAN CHEMICAL CORPORATION, priority 2014, dated 2021).

Tests used:
Format in all cases: in vivo
[1] = system: Echinochloa oryzacola Vasing.; assay: Test Example 1: herbicidal activity, application before weed generation in submerged conditions (symbol A); settings: application herbicide amount 320 g/ha
In short: (§1)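 In a flooded pot test with alluvial soil, the emulsion-formulated compound was diluted with water to a predetermined amount and applied to the floodwater immediately on the sowing day. Pots were held in a greenhouse at 25–30 °C for 3 weeks before each weed was rated.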

Scirpus juncoides = assay: Test Example 1: herbicidal activity, application before weed generation in submerged conditions (symbol B); settings: application herbicide amount 320 g/ha
In short: as §1

Monochoria vaginalis = assay: Test Example 1: herbicidal activity, application before weed generation in submerged conditions (symbol C); settings: application herbicide amount 320 g/ha
In short: as §1

transplanted rice plant = assay: Test Example 1: effect on crop, application before weed generation in submerged conditions (symbol a); settings: application herbicide amount 320 g/ha
In short: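 Rice at 2.5 leaf stage transplanted into submerged soil (4 cm depth) sown with three weed species; herbicide applied before weed emergence.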

[2] = system: Echinochloa crus-galli var. crus-galli; assay: Test Example 3: herbicidal effect by foliage application, Wagner pot (symbol H); settings: application herbicide amount 320 g/ha
In short: (§2)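 Foliar spray of a water-diluted emulsion at a predetermined herbicide amount, applied to 14-day-old plants. Seedlings were raised in flooded alluvial soil (0.1–0.5 cm water) at 25–30 °C in a greenhouse. Injury was rated after 3 weeks against fixed criteria.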

Leptochloa chinensis = assay: Test Example 3: herbicidal effect by foliage application, Wagner pot (symbol D); settings: application herbicide amount 320 g/ha
In short: as §2

Cyperus difformis = assay: Test Example 3: herbicidal effect by foliage application, Wagner pot (symbol E); settings: application herbicide amount 320 g/ha
In short: as §2

[3] = system: directly sowed rice plant; assay: Test Example 3: effect on crop by foliage application, Wagner pot (symbol b); settings: application herbicide amount 320 g/ha
In short: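 Wagner pot (1/10000 are), alluvial soil, submerged 0.1–0.5 cm; sown E. crus-galli var. crus-galli, L. chinensis, C. difformis, rice; greenhouse 25–30 °C.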

Digitaria ciliaris = assay: Test Example 5: herbicidal effect by foliage application, plastic box (symbol F); settings: 320 g/ha, 3 weeks after application
In short: (§3)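 Post-emergence spray; diluvial soil (sterilized), ~1.5 cm seed cover; greenhouse 25–30° C; 14-day-old plants; water-diluted emulsion at predetermined dose; visual score at 3 wk post-treatment.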

Setaria viridis = assay: Test Example 5: herbicidal effect by foliage application, plastic box (symbol G); settings: 320 g/ha, 3 weeks after application
In short: as §3

[4] = system: Echinochloa crus-galli var. crus-galli; assay: Test Example 5: herbicidal effect by foliage application, plastic box (symbol H); settings: 320 g/ha, 3 weeks after application
In short: as §3

Avena fatua = assay: Test Example 5: herbicidal effect by foliage application, plastic box (symbol I); settings: 320 g/ha, 3 weeks after application
In short: as §3

Alopecurus myosuroides = assay: Test Example 5: herbicidal effect by foliage application, plastic box (symbol J); settings: 320 g/ha, 3 weeks after application
In short: as §3

Lolium multiflorum Lam. = assay: Test Example 5: herbicidal effect by foliage application, plastic box (symbol K); settings: 320 g/ha, 3 weeks after application
In short: as §3

Apera spica-venti = assay: Test Example 5: herbicidal effect by foliage application, plastic box (symbol L); settings: 320 g/ha, 3 weeks after application
In short: as §3

Abutilon theophrasti = assay: Test Example 5: herbicidal effect by foliage application, plastic box (symbol M); settings: 320 g/ha, 3 weeks after application
In short: as §3

Amaranthus retroflexus = assay: Test Example 5: herbicidal effect by foliage application, plastic box (symbol N); settings: 320 g/ha, 3 weeks after application
In short: as §3

Chenopodium album = assay: Test Example 5: herbicidal effect by foliage application, plastic box (symbol O); settings: 320 g/ha, 3 weeks after application
In short: as §3

Stellaria media = assay: Test Example 5: herbicidal effect by foliage application, plastic box (symbol P); settings: 320 g/ha, 3 weeks after application
In short: as §3

Galium spurium = assay: Test Example 5: herbicidal effect by foliage application, plastic box (symbol Q); settings: 320 g/ha, 3 weeks after application
In short: as §3

Veronica persica = assay: Test Example 5: herbicidal effect by foliage application, plastic box (symbol R); settings: 320 g/ha, 3 weeks after application
In short: as §3

corn = assay: Test Example 5: effect on crop by foliage application, plastic box (symbol c); settings: 320 g/ha, 3 weeks after application
In short: (§4)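 Greenhouse test at 25° C. to 30° C. Seeds of crops and weeds were spot-sown in boxes of sterilized diluvial soil under roughly 1.5 cm soil cover, then grown for foliage treatment.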

soybean = assay: Test Example 5: effect on crop by foliage application, plastic box (symbol d); settings: 320 g/ha, 3 weeks after application
In short: as §4

rice plant = assay: Test Example 5: effect on crop by foliage application, plastic box (symbol b); settings: 320 g/ha, 3 weeks after application
In short: as §4

wheat = assay: Test Example 5: effect on crop by foliage application, plastic box (symbol e); settings: 320 g/ha, 3 weeks after application
In short: as §4

beet = assay: Test Example 5: effect on crop by foliage application, plastic box (symbol f); settings: 320 g/ha, 3 weeks after application
In short: as §4

rapeseed = assay: Test Example 5: effect on crop by foliage application, plastic box (symbol g); settings: 320 g/ha, 3 weeks after application
In short: as §4

CCCC=Cc1cc(C)c(C2=C(O)CC(CC(C)=O)C2=O)c(C)c1 (stereo not drawn) [7-022]
Herbicidal effect grade, A: Echinochloa oryzacola Vasing. [1]: 4 (Herbicidal ratio of 70% or higher and lower than 90%)
Herbicidal effect grade, B: Scirpus juncoides (Scirpus juncoides): 2 (Herbicidal ratio of 20% or higher and lower than 40%)
Herbicidal effect grade, C: Monochoria vaginalis (Monochoria vaginalis): 3 (Herbicidal ratio of 40% or higher and lower than 70%)
Effect grade on crop, a: transplanted rice plant (transplanted rice plant): 3 (Herbicidal ratio of 40% or higher and lower than 70%)
herbicidal effect on H (Echinochloa crus-galli var. crus-galli), grade 0-5 [2]: 0 (Herbicidal ratio of 5% or lower (almost no effect))
herbicidal effect on D (Leptochloa chinensis), grade 0-5 (Leptochloa chinensis): 4 (Herbicidal ratio of 70% or higher and lower than 90%)
herbicidal effect on E, grade 0-5 (Cyperus difformis): 0 (Herbicidal ratio of 5% or lower (almost no effect))
effect on crop b (directly sowed rice plant), grade 0-5 [3]: 0 (Herbicidal ratio of 5% or lower (almost no effect))
F: Digitaria ciliaris, herbicidal effect (criteria of Test Example 1) (Digitaria ciliaris): 0 (Herbicidal ratio of 5% or lower (almost no effect))
G: Setaria viridis, herbicidal effect (criteria of Test Example 1) (Setaria viridis): 0 (Herbicidal ratio of 5% or lower (almost no effect))
H: Echinochloa crus-galli var. crus-galli, herbicidal effect (criteria of Test Example 1) [4]: 1 (Herbicidal ratio of 5% or higher and lower than 20%)
I: Avena fatua, herbicidal effect (criteria of Test Example 1) (Avena fatua): 0 (Herbicidal ratio of 5% or lower (almost no effect))
J: Alopecurus myosuroides, herbicidal effect (criteria of Test Example 1) (Alopecurus myosuroides): 0 (Herbicidal ratio of 5% or lower (almost no effect))
K: Lolium multiflorum Lam., herbicidal effect (criteria of Test Example 1) (Lolium multiflorum Lam.): 2 (Herbicidal ratio of 20% or higher and lower than 40%)
L: Apera spica-venti, herbicidal effect (criteria of Test Example 1) (Apera spica-venti): 0 (Herbicidal ratio of 5% or lower (almost no effect))
M: Abutilon theophrasti, herbicidal effect (criteria of Test Example 1) (Abutilon theophrasti): 0 (Herbicidal ratio of 5% or lower (almost no effect))
N: Amaranthus retroflexus, herbicidal effect (criteria of Test Example 1) (Amaranthus retroflexus): 0 (Herbicidal ratio of 5% or lower (almost no effect))
O: Chenopodium album, herbicidal effect (criteria of Test Example 1) (Chenopodium album): 0 (Herbicidal ratio of 5% or lower (almost no effect))
P: Stellaria media, herbicidal effect (criteria of Test Example 1) (Stellaria media): 0 (Herbicidal ratio of 5% or lower (almost no effect))
Q: Galium spurium, herbicidal effect (criteria of Test Example 1) (Galium spurium): 0 (Herbicidal ratio of 5% or lower (almost no effect))
R: Veronica persica, herbicidal effect (criteria of Test Example 1) (Veronica persica): 0 (Herbicidal ratio of 5% or lower (almost no effect))
c: corn, effect on crop (criteria of Test Example 1) (corn): 0 (Herbicidal ratio of 5% or lower (almost no effect))
d: soybean, effect on crop (criteria of Test Example 1) (soybean): 0 (Herbicidal ratio of 5% or lower (almost no effect))
b: directly sowed rice plant, effect on crop (criteria of Test Example 1) (rice plant): 0 (Herbicidal ratio of 5% or lower (almost no effect))
e: wheat, effect on crop (criteria of Test Example 1) (wheat): 0 (Herbicidal ratio of 5% or lower (almost no effect))
f: beet, effect on crop (criteria of Test Example 1) (beet): 0 (Herbicidal ratio of 5% or lower (almost no effect))
g: rapeseed, effect on crop (criteria of Test Example 1) (rapeseed): 0 (Herbicidal ratio of 5% or lower (almost no effect))

CC(=O)CC1CC(O)=C(c2c(C)cc(-n3cncn3)cc2C)C1=O (stereo not drawn) [7-026]
Herbicidal effect grade, A: Echinochloa oryzacola Vasing. [1]: 3 (Herbicidal ratio of 40% or higher and lower than 70%)
Herbicidal effect grade, B: Scirpus juncoides (Scirpus juncoides): 0 (Herbicidal ratio of 5% or lower (almost no effect))
Herbicidal effect grade, C: Monochoria vaginalis (Monochoria vaginalis): 0 (Herbicidal ratio of 5% or lower (almost no effect))
Effect grade on crop, a: transplanted rice plant (transplanted rice plant): 0 (Herbicidal ratio of 5% or lower (almost no effect))
H (Echinochloa crus-galli var. crus-galli) herbicidal effect grade ([2]; Table 24): 0 (Herbicidal ratio of 5% or lower (almost no effect))
D (Leptochloa chinensis) herbicidal effect grade (Leptochloa chinensis; Table 24): 3 (Herbicidal ratio of 40% or higher and lower than 70%)
E herbicidal effect grade (Cyperus difformis; Table 24): 0 (Herbicidal ratio of 5% or lower (almost no effect))
b (directly sowed rice plant) effect on crop grade ([3]; Table 24): 0 (Herbicidal ratio of 5% or lower (almost no effect))
F: Digitaria ciliaris, herbicidal effect (criteria of Test Example 1) (Digitaria ciliaris): 0 (Herbicidal ratio of 5% or lower (almost no effect))
G: Setaria viridis, herbicidal effect (criteria of Test Example 1) (Setaria viridis): 0 (Herbicidal ratio of 5% or lower (almost no effect))
H: Echinochloa crus-galli var. crus-galli, herbicidal effect (criteria of Test Example 1) [4]: 1 (Herbicidal ratio of 5% or higher and lower than 20%)
I: Avena fatua, herbicidal effect (criteria of Test Example 1) (Avena fatua): 0 (Herbicidal ratio of 5% or lower (almost no effect))
J: Alopecurus myosuroides, herbicidal effect (criteria of Test Example 1) (Alopecurus myosuroides): 1 (Herbicidal ratio of 5% or higher and lower than 20%)
K: Lolium multiflorum Lam., herbicidal effect (criteria of Test Example 1) (Lolium multiflorum Lam.): 1 (Herbicidal ratio of 5% or higher and lower than 20%)
L: Apera spica-venti, herbicidal effect (criteria of Test Example 1) (Apera spica-venti): 0 (Herbicidal ratio of 5% or lower (almost no effect))
M: Abutilon theophrasti, herbicidal effect (criteria of Test Example 1) (Abutilon theophrasti): 0 (Herbicidal ratio of 5% or lower (almost no effect))
N: Amaranthus retroflexus, herbicidal effect (criteria of Test Example 1) (Amaranthus retroflexus): 0 (Herbicidal ratio of 5% or lower (almost no effect))
O: Chenopodium album, herbicidal effect (criteria of Test Example 1) (Chenopodium album): 0 (Herbicidal ratio of 5% or lower (almost no effect))
P: Stellaria media, herbicidal effect (criteria of Test Example 1) (Stellaria media): 0 (Herbicidal ratio of 5% or lower (almost no effect))
Q: Galium spurium, herbicidal effect (criteria of Test Example 1) (Galium spurium): 0 (Herbicidal ratio of 5% or lower (almost no effect))
R: Veronica persica, herbicidal effect (criteria of Test Example 1) (Veronica persica): 0 (Herbicidal ratio of 5% or lower (almost no effect))
c: corn, effect on crop (criteria of Test Example 1) (corn): 0 (Herbicidal ratio of 5% or lower (almost no effect))
d: soybean, effect on crop (criteria of Test Example 1) (soybean): 0 (Herbicidal ratio of 5% or lower (almost no effect))
b: directly sowed rice plant, effect on crop (criteria of Test Example 1) (rice plant): 0 (Herbicidal ratio of 5% or lower (almost no effect))
e: wheat, effect on crop (criteria of Test Example 1) (wheat): 0 (Herbicidal ratio of 5% or lower (almost no effect))
f: beet, effect on crop (criteria of Test Example 1) (beet): 0 (Herbicidal ratio of 5% or lower (almost no effect))
g: rapeseed, effect on crop (criteria of Test Example 1) (rapeseed): 0 (Herbicidal ratio of 5% or lower (almost no effect))
